Each structure is given as a SMILES string. Like-named read-outs stand apart in the source and are kept apart here. Bounds are passed on as bounds.

One experiment deals with MV4;11 cells. Kind of experiment: Cell viability assay (CellTiter-Glo) in MV4;11 cells, alone or with gilteritinib. The experiment is classed as cell-based. The conditions noted are these: Homo sapiens, MV4-11, 72 h, MV4;11 cells, three days, CellTiter-Glo, read-out: MV4. In general terms: In ATP-based viability assays light output follows the ATP content of the culture.
The subject of another experiment is MOLM-13 cells. Kind of experiment: Cell viability assay (CellTiter-Glo) in MOLM-13 cells, alone or with gilteritinib. The experiment is classed as cell-based. Particulars: Homo sapiens, MOLM-13, 72 h, MOLM-13 cells, three days, CellTiter-Glo.
The mark [1] stands for this setting: compound alone (without gilteritinib), 11 IC50.
[2] abbreviates: compound with gilteritinib 10 nM, 11 IC50 gilteritinib.
Setting [3] is: compound alone (without gilteritinib), read-out: MOLM-13 IC50.
[4] abbreviates: compound with gilteritinib 20 nM, read-out: MOLM-13 IC50 gilteritinib.

On to `O=C1CCC(N2C(=O)c3ccc(NCCC[C@H]4C[C@@H](n5cc(-c6cnc7cc(N8CCNCC8)ccc7n6)cn5)C4)cc3C2=O)C(=O)N1` (stereo partly drawn) [GS-425, 2-(2,6-dioxopiperidin-3-yl)-5-((3-(cis-3-(4-(6-(piperazin-1-yl)quinoxalin-2-yl)-1H-pyrazol-1-yl)cyclobutyl)propyl)amino)isoindoline-1,3-dione], for which the IC50 is over 1 µM in the experiment on MV4;11 cells (setting [1]), 0.01 to 0.1 µM in the experiment on MV4;11 cells (setting [2]), 0.1 to 1 µM in the experiment with MOLM-13 cells (setting [3]) and 0.01 to 0.1 µM in the experiment with MOLM-13 cells (setting [4]).

Turning to `CN1CCC(c2cccc3nc(-c4cnn([C@H]5C[C@H](CCCNc6ccc7c(c6)C(=O)N(C6CCC(=O)NC6=O)C7=O)C5)c4)cnc23)CC1` (stereo partly drawn) [GS-426, 2-(2,6-dioxopiperidin-3-yl)-5-((3-(trans-3-(4-(5-(1-methylpiperidin-4-yl)quinoxalin-2-yl)-1H-pyrazol-1-yl)cyclobutyl)propyl)amino)isoindoline-1,3-dione], the IC50 was 0.01 to 0.1 µM in the experiment with MV4;11 cells (setting [1]), under 0.01 µM with MV4;11 cells (setting [2]), 0.01 to 0.1 µM in the experiment on MOLM-13 cells (setting [3]) and under 0.01 µM in the experiment with MOLM-13 cells (setting [4]).

Take `O=C1CCC(N2C(=O)c3ccc(NCCC[C@H]4C[C@H](n5cc(-c6cnc7c(C8CCOCC8)cccc7n6)cn5)C4)cc3C2=O)C(=O)N1` (stereo partly drawn) [GS-427, 2-(2,6-dioxopiperidin-3-yl)-5-((3-(trans-3-(4-(5-(tetrahydro-2H-pyran-4-yl)quinoxalin-2-yl)-1H-pyrazol-1-yl)cyclobutyl)propyl)amino)isoindoline-1,3-dione]: the IC50 is 0.01 to 0.1 µM in the experiment on MV4;11 cells (setting [1]), under 0.01 µM in the experiment with MV4;11 cells (setting [2]), 0.01 to 0.1 µM in the experiment with MOLM-13 cells (setting [3]) and under 0.01 µM in the experiment on MOLM-13 cells (setting [4]).

With `Cc1nn([C@H]2C[C@@H](CCCNc3ccc4c(c3)C(=O)N(C3CCC(=O)NC3=O)C4=O)C2)cc1-c1cnc2cc(N3CCN(C)CC3)ccc2n1` (stereo partly drawn) [GS-428, 2-(2,6-dioxopiperidin-3-yl)-5-((3-(cis-3-(3-methyl-4-(6-(4-methylpiperazin-1-yl)quinoxalin-2-yl)-1H-pyrazol-1-yl)cyclobutyl)propyl)amino)isoindoline-1,3-dione], the IC50 with MV4;11 cells (setting [1]) is 0.01 to 0.1 µM; in the experiment with MV4;11 cells (setting [2]), under 0.01 µM; in the experiment with MOLM-13 cells (setting [3]), 0.01 to 0.1 µM; with MOLM-13 cells (setting [4]), under 0.01 µM.

In the case of `O=C1CCC(N2C(=O)c3ccc(NCCC[C@H]4C[C@@H](n5cc(-c6cnc7cc(C8CCNCC8)ccc7n6)cn5)C4)cc3C2=O)C(=O)N1` (stereo partly drawn) [GS-429, 2-(2,6-dioxopiperidin-3-yl)-5-((3-(cis-3-(4-(6-(piperidin-4-yl)quinoxalin-2-yl)-1H-pyrazol-1-yl)cyclobutyl)propyl)amino)isoindoline-1,3-dione], the IC50 in the experiment with MV4;11 cells (setting [1]) is 0.1 to 1 µM; in the experiment with MV4;11 cells (setting [2]), under 0.01 µM; in the experiment with MOLM-13 cells (setting [3]), 0.1 to 1 µM; in the experiment with MOLM-13 cells (setting [4]), 0.01 to 0.1 µM.

`O=C1CCC(N2C(=O)c3ccc(NCCC[C@H]4C[C@@H](n5cc(-c6cnc7cc(C8CCOCC8)ccc7n6)cn5)C4)cc3C2=O)C(=O)N1` (stereo partly drawn) [GS-430, 2-(2,6-dioxopiperidin-3-yl)-5-((3-(cis-3-(4-(6-(tetrahydro-2H-pyran-4-yl)quinoxalin-2-yl)-1H-pyrazol-1-yl)cyclobutyl)propyl)amino)isoindoline-1,3-dione]: the IC50 was 0.1 to 1 µM in the experiment with MV4;11 cells (setting [1]), 0.01 to 0.1 µM in the experiment with MV4;11 cells (setting [2]), over 1 µM with MOLM-13 cells (setting [3]) and 0.01 to 0.1 µM in the experiment on MOLM-13 cells (setting [4]).

As to `O=C1CCC(N2C(=O)c3ccc(NCCC[C@H]4C[C@H](n5cc(-c6cnc7c(C8CCNCC8)cccc7n6)cn5)C4)cc3C2=O)C(=O)N1` (stereo partly drawn) [GS-431, 2-(2,6-dioxopiperidin-3-yl)-5-((3-(trans-3-(4-(5-(piperidin-4-yl)quinoxalin-2-yl)-1H-pyrazol-1-yl)cyclobutyl)propyl)amino)isoindoline-1,3-dione], the IC50 with MV4;11 cells (setting [1]) is under 0.01 µM; in the experiment on MV4;11 cells (setting [2]) it was under 0.01 µM; in the experiment with MOLM-13 cells (setting [3]) it was 0.01 to 0.1 µM; in the experiment on MOLM-13 cells (setting [4]), under 0.01 µM.

`CN1CCC(c2ccc3nc(-c4cnn([C@H]5C[C@@H](CCCNc6ccc7c(c6)C(=O)N(C6CCC(=O)NC6=O)C7=O)C5)c4)cnc3c2)CC1` (stereo partly drawn) [GS-432, 2-(2,6-dioxopiperidin-3-yl)-5-((3-(cis-3-(4-(6-(1-methylpiperidin-4-yl)quinoxalin-2-yl)-1H-pyrazol-1-yl)cyclobutyl)propyl)amino)isoindoline-1,3-dione]: the IC50 in the experiment with MV4;11 cells (setting [1]) is over 1 µM; in the experiment on MV4;11 cells (setting [2]), 0.01 to 0.1 µM; in the experiment on MOLM-13 cells (setting [3]) it was over 1 µM; in the experiment on MOLM-13 cells (setting [4]), 0.01 to 0.1 µM.

For the compound `O=C1CCC(N2C(=O)c3ccc(NCCC[C@H]4C[C@H](n5cc(C6CCOCC6)cn5)C4)cc3C2=O)C(=O)N1` (stereo partly drawn) [GS-433, 2-(2,6-dioxopiperidin-3-yl)-5-((3-(trans-3-(4-(tetrahydro-2H-pyran-4-yl)-1H-pyrazol-1-yl)cyclobutyl)propyl)amino)isoindoline-1,3-dione], the IC50 in the experiment on MV4;11 cells (setting [1]), in the experiment on MV4;11 cells (setting [2]), in the experiment on MOLM-13 cells (setting [3]) and in the experiment on MOLM-13 cells (setting [4]) was over 1 µM in each case.

For the compound `Cc1nn([C@H]2C[C@@H](CCCNc3ccc4c(c3)C(=O)N(C3CCC(=O)NC3=O)C4=O)C2)cc1-c1cnc2cc(N3CCNCC3)ccc2n1` (stereo partly drawn) [GS-434, 2-(2,6-dioxopiperidin-3-yl)-5-((3-(cis-3-(3-methyl-4-(6-(piperazin-1-yl)quinoxalin-2-yl)-1H-pyrazol-1-yl)cyclobutyl)propyl)amino)isoindoline-1,3-dione], the IC50 was under 0.01 µM with MV4;11 cells (setting [1]), under 0.01 µM in the experiment on MV4;11 cells (setting [2]), 0.01 to 0.1 µM in the experiment with MOLM-13 cells (setting [3]) and under 0.01 µM in the experiment with MOLM-13 cells (setting [4]).

In the case of `CN1CCC(c2cnn([C@H]3C[C@H](CCCNc4ccc5c(c4)C(=O)N(C4CCC(=O)NC4=O)C5=O)C3)c2)CC1` (stereo partly drawn) [GS-435, 2-(2,6-dioxopiperidin-3-yl)-5-((3-(trans-3-(4-(1-methylpiperidin-4-yl)-1H-pyrazol-1-yl)cyclobutyl)propyl)amino)isoindoline-1,3-dione], the IC50 with MV4;11 cells (setting [1]) is 0.1 to 1 µM; with MV4;11 cells (setting [2]), over 1 µM; in the experiment with MOLM-13 cells (setting [3]), over 1 µM; in the experiment on MOLM-13 cells (setting [4]), 0.1 to 1 µM.

Take `CN1CCN(c2nccc(-c3cnn([C@H]4C[C@H](CCCNc5ccc6c(c5)C(=O)N(C5CCC(=O)NC5=O)C6=O)C4)c3)n2)CC1` (stereo partly drawn) [GS-436, 2-(2,6-dioxopiperidin-3-yl)-5-((3-(trans-3-(4-(2-(4-methylpiperazin-1-yl)pyrimidin-4-yl)-1H-pyrazol-1-yl)cyclobutyl)propyl)amino)isoindoline-1,3-dione]: the IC50 was over 1 µM in the experiment with MV4;11 cells (setting [1]), 0.1 to 1 µM in the experiment with MV4;11 cells (setting [2]), over 1 µM in the experiment on MOLM-13 cells (setting [3]) and 0.1 to 1 µM with MOLM-13 cells (setting [4]).

For the compound `O=C1CCC(N2C(=O)c3ccc(NCCCC4CC(n5cc(N6CCOCC6)cn5)C4)cc3C2=O)C(=O)N1` (stereo not shown) [GS-437, 2-(2,6-dioxopiperidin-3-yl)-5-((3-(3-(4-morpholino-1H-pyrazol-1-yl)cyclobutyl)propyl)amino)isoindoline-1,3-dione], the IC50 with MV4;11 cells (setting [1]) was over 1 µM; in the experiment on MV4;11 cells (setting [2]), over 1 µM; with MOLM-13 cells (setting [3]), over 1 µM; in the experiment with MOLM-13 cells (setting [4]), 0.1 to 1 µM.

Consider `O=C1CCC(N2C(=O)c3ccc(NC[C@H]4C[C@H](n5cc(N6CCOCC6)c(C6CC6)n5)C4)cc3C2=O)C(=O)N1` (stereo partly drawn) [GS-438, 5-(((trans-3-(3-cyclopropyl-4-morpholino-1H-pyrazol-1-yl)cyclobutyl)methyl)amino)-2-(2,6-dioxopiperidin-3-yl)isoindoline-1,3-dione], for which the IC50 in the experiment with MV4;11 cells (setting [1]) was over 1 µM; in the experiment with MV4;11 cells (setting [2]), over 1 µM; in the experiment on MOLM-13 cells (setting [3]) it was over 1 µM; in the experiment on MOLM-13 cells (setting [4]), 0.1 to 1 µM.

For `Cc1cccc(-c2cn([C@H]3C[C@H](CNc4ccc5c(c4)C(=O)N(C4CCC(=O)NC4=O)C5=O)C3)nc2C(F)(F)F)n1` (stereo partly drawn) [GS-439, 2-(2,6-dioxopiperidin-3-yl)-5-(((trans-3-(4-(6-methylpyridin-2-yl)-3-(trifluoromethyl)-1H-pyrazol-1-yl)cyclobutyl)methyl)amino)isoindoline-1,3-dione], the IC50 in the experiment on MV4;11 cells (setting [1]) is 0.1 to 1 µM; in the experiment with MV4;11 cells (setting [2]), 0.01 to 0.1 µM; with MOLM-13 cells (setting [3]), over 1 µM; with MOLM-13 cells (setting [4]) it was 0.01 to 0.1 µM.

In the case of `CN1CCN(c2cccc(-c3cn([C@H]4C[C@H](CNc5ccc6c(c5)C(=O)N(C5CCC(=O)NC5=O)C6=O)C4)nc3C3CC3)n2)CC1` (stereo partly drawn) [GS-440, 5-(((trans-3-(3-cyclopropyl-4-(6-(4-methylpiperazin-1-yl)pyridin-2-yl)-1H-pyrazol-1-yl)cyclobutyl)methyl)amino)-2-(2,6-dioxopiperidin-3-yl)isoindoline-1,3-dione], the IC50 in the experiment with MV4;11 cells (setting [1]), with MV4;11 cells (setting [2]), in the experiment on MOLM-13 cells (setting [3]) and in the experiment with MOLM-13 cells (setting [4]) was 0.1 to 1 µM in each case.

For `O=C1CCC(N2C(=O)c3ccc(NC[C@H]4C[C@H](n5cc(-c6cccc(NC7CCOCC7)n6)c(C6CC6)n5)C4)cc3C2=O)C(=O)N1` (stereo partly drawn) [GS-441, 5-(((trans-3-(3-cyclopropyl-4-(6-((tetrahydro-2H-pyran-4-yl)amino)pyridin-2-yl)-1H-pyrazol-1-yl)cyclobutyl)methyl)amino)-2-(2,6-dioxopiperidin-3-yl)isoindoline-1,3-dione], the IC50 with MV4;11 cells (setting [1]) was over 1 µM; in the experiment with MV4;11 cells (setting [2]), 0.01 to 0.1 µM; in the experiment on MOLM-13 cells (setting [3]), 0.01 to 0.1 µM; in the experiment on MOLM-13 cells (setting [4]), 0.1 to 1 µM.

In the case of `O=C1CCC(N2C(=O)c3ccc(NC[C@H]4C[C@H](n5nc(C6CC6)c6ccccc65)C4)cc3C2=O)C(=O)N1` (stereo partly drawn) [GS-442, 5-(((trans-3-(3-cyclopropyl-1H-indazol-1-yl)cyclobutyl)methyl)amino)-2-(2,6-dioxopiperidin-3-yl)isoindoline-1,3-dione], the IC50 is under 0.01 µM in the experiment with MV4;11 cells (setting [1]), under 0.01 µM in the experiment with MV4;11 cells (setting [2]), 0.01 to 0.1 µM with MOLM-13 cells (setting [3]) and under 0.01 µM in the experiment with MOLM-13 cells (setting [4]).

In the case of `O=C1CCC(N2C(=O)c3ccc(NCCC[C@H]4C[C@H](n5cc(-c6ccc(Cl)cn6)cn5)C4)cc3C2=O)C(=O)N1` (stereo partly drawn) [GS-443, 5-((3-(trans-3-(4-(5-chloropyridin-2-yl)-1H-pyrazol-1-yl)cyclobutyl)propyl)amino)-2-(2,6-dioxopiperidin-3-yl)isoindoline-1,3-dione], the IC50 in the experiment with MV4;11 cells (setting [1]) is 0.1 to 1 µM; in the experiment on MV4;11 cells (setting [2]) it was 0.1 to 1 µM; in the experiment on MOLM-13 cells (setting [3]), under 0.01 µM; with MOLM-13 cells (setting [4]), over 1 µM.

Values taken from patent publication US20240050428A1 (Cullgen (Shanghai), Inc., priority 2020, published 2024).
